{"source": "patent US11399455B1", "about": "“Cast pellets for planting seeds” (Ball Horticultural Company, priority 2010, dated 2022)", "key": {"[1]": {"tested_on": "Marigolds African Marvel Orange seeds", "experiment": "Growth regulator in casting: germination and plant height", "format": "in vivo", "conditions": "count date 10; for Germ (%): 25° C.", "description": "(§1) A single seed was placed in every mold cavity of a mold containing 108 cavities of dimensions 0.25 inch (6.4 mm) in length by 0.125 inch (3.2 mm) in width and 0.125 inch (3.2 mm) in depth. The following growth regulator concentrations were applied to seed via the casting method: 2 ppm, 4 ppm, and 8 ppm. PEG 4000 (100 g) was weighed out and put into a beaker. This was done four times. Each beaker with the PEG 4000 was heated to 111° F. until the PEG 4000 completely melted. The growth regulator concentrations were made by dissolving a given weight of the plant grown retardant ancymidol (α-cyclopropyl-α-(p-methoxyphenyl)-5-pyrimidinemethanol; A-REST) powder into 1 ml of acetone, as follows: 6.4 mg A-REST into 1 ml of acetone for 2 ppm; 12.8 mg A-REST into 1 ml of acetone for 4 ppm; and 25.6 mg A-REST into 1 ml acetone for 8 ppm. Once dissolved, the specified concentrations of A-REST were added to the beakers with the melted PEG and mixed on the heated stir plate until well blended; 65 μl was pipetted into the cavities that contained the seeds. Once the entire mold was filled it was set aside to cool. […] The castings were then removed from the mold.\n(§2) The 108 castings (seed plus PEG 4000) containing the A-REST concentrations, along with a cast only (no added A-REST) and a raw control, were sown in a plug tray to evaluate germination. Seeds were sown at 25° C. The plug trays were run through a watering tunnel and then put into a Stage 1 mist chamber. Upon radical emergence, the plugs were placed in a Stage 2 chamber. The amount of time in Stage 1 and Stage 2 was dependent on the crop.\n(§3) Plant height was measured and recorded on the same day seed germination was recorded."}, "[2]": {"tested_on": "Impatiens Dazzler White seeds", "experiment": "Growth regulator in casting: germination and plant height", "format": "in vivo", "conditions": "count date 11; for Germ (%): 25° C.", "description": "as §1, §2, §3"}}}
{"smiles": "COc1ccc(C(O)(c2cncnc2)C2CC2)cc1", "note": "(stereo not drawn) [A-REST, α-cyclopropyl-α-(p-methoxyphenyl)-5-pyrimidinemethanol]", "values": [{"measurement": "Germ (%)", "setting": "[1]; 2 ppm in PEG 4000 casting", "result": 98, "unit": "%"}, {"measurement": "Ave. Height (mm)", "setting": "[1]; 2 ppm in PEG 4000 casting", "result": 12, "unit": "mm"}, {"measurement": "Germ (%)", "setting": "[1]; 4 ppm in PEG 4000 casting", "result": 87, "unit": "%"}, {"measurement": "Ave. Height (mm)", "setting": "[1]; 4 ppm in PEG 4000 casting", "result": 12, "unit": "mm"}, {"measurement": "Germ (%)", "setting": "[1]; 8 ppm in PEG 4000 casting", "result": 82, "unit": "%"}, {"measurement": "Ave. Height (mm)", "setting": "[1]; 8 ppm in PEG 4000 casting", "result": 12, "unit": "mm"}, {"measurement": "Germ (%)", "setting": "[2]; 2 ppm in PEG 4000 casting", "result": 96, "unit": "%"}, {"measurement": "Ave. Height (mm)", "setting": "[2]; 2 ppm in PEG 4000 casting", "result": 13, "unit": "mm"}, {"measurement": "Germ (%)", "setting": "[2]; 4 ppm in PEG 4000 casting", "result": 94, "unit": "%"}, {"measurement": "Ave. Height (mm)", "setting": "[2]; 4 ppm in PEG 4000 casting", "result": 11, "unit": "mm"}, {"measurement": "Germ (%)", "setting": "[2]; 8 ppm in PEG 4000 casting", "result": 99, "unit": "%"}, {"measurement": "Ave. Height (mm)", "setting": "[2]; 8 ppm in PEG 4000 casting", "result": 9, "unit": "mm"}]}
